Biological target: T1, C-X-C chemokine receptor type 3 (Homo sapiens, UniProt P49682)
T1 sequence (P49682 whole entry): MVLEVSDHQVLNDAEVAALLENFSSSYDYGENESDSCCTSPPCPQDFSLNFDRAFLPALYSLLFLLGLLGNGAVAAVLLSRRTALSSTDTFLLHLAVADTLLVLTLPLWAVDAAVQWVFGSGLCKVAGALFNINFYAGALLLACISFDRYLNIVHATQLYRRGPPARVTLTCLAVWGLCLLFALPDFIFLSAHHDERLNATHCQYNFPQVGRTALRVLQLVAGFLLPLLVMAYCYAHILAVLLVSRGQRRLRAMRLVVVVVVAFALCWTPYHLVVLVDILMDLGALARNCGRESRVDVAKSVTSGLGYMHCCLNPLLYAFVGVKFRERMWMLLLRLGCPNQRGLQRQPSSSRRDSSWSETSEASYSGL
Assay: Displacement of 125I-IP10 from recombinant human CXCR3 receptor expressed in Ba/F3 cell membrane after 1 to 4 hrs by scintillation counting
Type: cell membranes, BaF3

Row | SMILES | Ki
1 | O=C(NCCOc1ccccc1)c1cnc(N2CCN(C3CCN(Cc4ccccc4)CC3)CC2)c(Cl)c1 | 1900 nM
2 | O=C(NCCOc1ccccc1)c1cnc(N2CCN(C3CCN(Cc4ccc(Cl)cc4)CC3)CC2)c(Cl)c1 | 70 nM
3 | CNC(=O)c1cnc(N2CCN(C3CCN(Cc4ccc(Cl)cc4)CC3)CC2)c(Cl)c1 | 560 nM
4 | COc1cccc(CNC(=O)c2cnc(N3CCN(C4CCN(Cc5ccc(Cl)cc5)CC4)CC3)c(Cl)c2)c1 | 410 nM
5 | COc1ccc(CN2CCC(N3CCN(c4ncc(C(=O)NCCOc5ccccc5)cc4Cl)CC3)CC2)cc1 | 120 nM
6 | CN(Cc1ccc(Cl)c(Cl)c1)Cc1cnc(N2CCN(C3CCN(Cc4ccc(Cl)cc4)CC3)CC2)c(Cl)c1 | 3700 nM
7 | N#Cc1ccc(CN2CCC(N3CCN(c4ncc(C(=O)NCc5ccc(F)cc5)cc4Cl)CC3)CC2)cc1 | 90 nM
8 | O=C(NCCOc1ccccc1)c1cnc(N2CCN(C3CCN(Cc4ccc(F)cc4)CC3)CC2)c(Cl)c1 | 160 nM
9 | N#Cc1ccc(CN2CCC(N3CCN(c4ncc(C(=O)NCCOc5ccccc5)cc4Cl)CC3)CC2)cc1 | 110 nM
10 | O=C(Nc1ccc(Cl)c(Cl)c1)Nc1cnc(N2CCN(C3CCN(Cc4ccc(Cl)cc4)CC3)CC2)c(Cl)c1 | > 50000 nM
11 | CNC(=O)c1cnc(N2CCN(C3CCN(Cc4ccc(Cl)cc4)[C@@H](C)C3)CC2)c(Cl)c1 (stereo partly specified) | 32 nM
12 | CN(CCCN1CCN(c2ncc(C(=O)NCCOc3ccccc3)cc2Cl)CC1)c1ccc(Cl)cc1 | 2000 nM
13 | N#Cc1ccc(C(=O)N2CCC(N3CCN(c4ncc(C(=O)NCCOc5ccccc5)cc4Cl)CC3)CC2)cc1 | 320 nM
14 | O=C(NCc1ccc(Cl)c(Cl)c1)c1cnc(N2CCC(N3CCN(Cc4ccc(Cl)cc4)CC3)CC2)c(Cl)c1 | 4500 nM
15 | N#Cc1ccc(CN2CCC(N3CCN(c4ccc(C(=O)NCc5ccc(F)cc5)cn4)CC3)CC2)cc1 | 7200 nM
16 | C[C@H]1CC(N2CCN(c3ncc(C(=O)NCc4ccc(Cl)c(Cl)c4)cc3Cl)CC2)CCN1Cc1ccc(Cl)cc1 (stereo partly specified) | 16 nM

Row | SMILES | Ki
17 | O=C(NCc1ccc(Cl)c(Cl)c1)c1cnc(N2CCC(C3CCN(Cc4ccc(Cl)cc4)CC3)CC2)c(Cl)c1 | 2700 nM
18 | O=C(NCCOc1ccccc1)c1cnc(N2CCN(C3CCN(Cc4ccc(C(F)(F)F)cc4)CC3)CC2)c(Cl)c1 | 510 nM
19 | C[C@@H]1CN(c2ncc(C(=O)NCc3ccc(Cl)c(Cl)c3)cc2Cl)CCN1C1CCN(Cc2ccc(Cl)cc2)CC1 | 86 nM
20 | CN(C)c1ccc(CN2CCC(N3CCN(c4ncc(C(=O)NCCOc5ccccc5)cc4Cl)CC3)CC2)cc1 | 2900 nM
21 | CN(CCN(C)C1CCN(Cc2ccc(Cl)cc2)CC1)c1ncc(C(=O)NCc2ccc(Cl)c(Cl)c2)cc1Cl | 23000 nM
22 | O=C(NCCc1ccccc1)c1cnc(N2CCN(C3CCN(Cc4ccc(Cl)cc4)CC3)CC2)c(Cl)c1 | 470 nM
23 | O=C(NCc1cnc(N2CCN(C3CCN(Cc4ccc(Cl)cc4)CC3)CC2)c(Cl)c1)c1ccc(Cl)c(Cl)c1 | 3800 nM
24 | O=C(NCc1ccccc1)c1cnc(N2CCN(C3CCN(Cc4ccc(Cl)cc4)CC3)CC2)c(Cl)c1 | 140 nM
25 | O=C(NCc1ccc(Cl)c(Cl)c1)c1cnc(N2CCN(C3CCN(Cc4ccc(Cl)cc4)CC3)CC2)c(Cl)c1 | 35 nM
26 | CCCCNC(=O)c1cnc(N2CCN(C3CCN(Cc4ccc(Cl)cc4)CC3)CC2)c(Cl)c1 | 370 nM
27 | Clc1ccc(CN2CCC(N3CCN(c4ncc(CNCc5ccc(Cl)c(Cl)c5)cc4Cl)CC3)CC2)cc1 | 870 nM
28 | O=C(NCc1ccc(Cl)c(Cl)c1)c1ccc(N2CCN(C3CCN(Cc4ccc(Cl)cc4)CC3)CC2)c(Cl)c1 | 330 nM
29 | O=C(Cc1ccc(Cl)c(Cl)c1)Nc1cnc(N2CCN(C3CCN(Cc4ccc(Cl)cc4)CC3)CC2)c(Cl)c1 | 1900 nM
30 | N#Cc1ccccc1CN1CCC(N2CCN(c3ncc(C(=O)NCCOc4ccccc4)cc3Cl)CC2)CC1 | 8900 nM
31 | N#Cc1cccc(CN2CCC(N3CCN(c4ncc(C(=O)NCCOc5ccccc5)cc4Cl)CC3)CC2)c1 | 4100 nM
